Results taken from patent publication US20070117770A1, “Human ribosomal DNA (rDNA) and ribosomal RNA (rRNA) nucleic acids and uses thereof” (Cylene Pharmaceuticals, Inc., priority 2005, published 2007).

Legend:
Test in all cases: Protein kinase inhibition assay
Format in all cases: biochemical
Abl(m) = Abl(m) (Mus musculus, UniProt P00520); settings: read-out: percent residual activity of Abl(m)
Description: (§1) Certain compounds were tested for activity in protein kinase inhibition assays. All substrates were dissolved and diluted to working stocks in de-ionized water, apart from histone H1 (10× working stock in 20 mM MOPS pH 7.0), PDKtide (10× working stock in 50 mM Tris pH 7.0) ATF2 (which is typically stored at a 20× working stock in 50 mM Tris pH 7.5, 150 mM NaCl, 0.1 mM EGTA, 0.03% Brij-35, 50% glycerol, 1 mM benzamidine, 0.2 mM PMSF and 0.1% R-mercaptoethanol), KKLNRTLSFAEPG (SEQ ID NO:203) and RRRLSFAEPG (SEQ ID NO:204) (50 mM HEPES pH 7.4) and GGEEEEYFELVKKKK (SEQ ID NO:205) (20 mM MOPS pH 7.0). All kinases were pre-diluted to a 10× working concentration prior to addition into the assay. The composition of the dilution buffer for each kinase is detailed below.
(§2) In a final reaction volume of 25 μl, Abl (m) (5-10 mU) is incubated with 8 mM MOPS pH 7.0, 0.2 mM EDTA, 50 μM EAIYAAPFAKKK (SEQ ID NO:206), 10 mM MgAcetate and [gamma-33P-ATP] (specific activity approx. 500 cpm/pmol, concentration as required). The reaction is initiated by the addition of the MgATP mix. After incubation for 40 minutes at room temperature, the reaction is stopped by the addition of 5 μl of a 3% phosphoric acid solution. 10 μl of the reaction is then spotted onto a P30 filtermat and washed three times for 5 minutes in 75 mM phosphoric acid and once in methanol prior to drying and scintillation counting.

Axl(h) = Axl(h) (Homo sapiens, UniProt P30530); settings: read-out: percent residual activity of Axl(h)
Description: as §1
as §2, with “μl, Axl (h)” for “μl, Abl (m)”, “EDTA, 250” for “EDTA, 50”, “μM KKSRGDYMTMQIG” for “μM EAIYAAPFAKKK”, “ID NO:210),” for “ID NO:206),”, “and [y-33P-ATP]” for “and [gamma-33P-ATP]”

EGFR(h) = EGFR(h) (Homo sapiens, UniProt P00533); settings: read-out: percent residual activity of EGFR(h)
Description: as §1
as §2, with “EGFR (h)” for “Abl (m)”, “10 mM MnCl2, 0.1 mg/ml poly(Glu, Tyr) 4:1,” for “50 μM EAIYAAPFAKKK (SEQ ID NO:206),”, “Filtermat A” for “P30 filtermat”

MAPKAP-K3(h) = MAPKAP-K3(h) (Homo sapiens, UniProt Q16644); settings: read-out: percent residual activity of MAPKAP-K3(h)
Description: as §1
In a final reaction volume of 25 μl, MAPKAP-K3 (h) (5-10 mU) is incubated with 50 mM Na R-glycerophosphate pH 7.5, 0.1 mM EGTA, 30 μM KKLNRTLSVA (SEQ ID NO:212), 10 mM MgAcetate and [gamma-33P-ATP] (specific activity approx. 500 cpm/pmol, concentration as required). The reaction is initiated by the addition of the MgATP mix. After incubation for 40 minutes at room temperature, the reaction is stopped by the addition of 5 μl of a 3% phosphoric acid solution. […]

PKCβI(h) = PKCβI(h) (Homo sapiens, UniProt P05771); settings: read-out: percent residual activity of PKCβI(h)
Description: as §1
In a final reaction volume of […], PKCβI (h) (5-10 mU) is incubated with 20 mM HEPES pH 7.4, 0.03% Triton X-100, 0.1 mM CaCl2, 0.1 mg/ml phosphatidylserine, 10 μg/ml diacylglycerol, 0.1 mg/ml histone H1, 10 mM MgAcetate and [gamma-33P-ATP] (specific activity approx. 500 cpm/pmol, concentration as required). The reaction is initiated by the addition of the MgATP mix. After incubation for 40 minutes at room temperature, the reaction is stopped by the addition of 5 μl of a 3% phosphoric acid solution. […]

PKCζ(h) = PKCζ(h) (Homo sapiens, UniProt Q05513); settings: read-out: percent residual activity of PKCζ(h)
Description: as §1
as §2, with “PKCξ (h)” for “Abl (m)”, “ERMRPRKRQGSVRRRV” for “EAIYAAPFAKKK”, “NO:224),” for “NO:206),”

EGFR(h), sequence (P00533 25-1210): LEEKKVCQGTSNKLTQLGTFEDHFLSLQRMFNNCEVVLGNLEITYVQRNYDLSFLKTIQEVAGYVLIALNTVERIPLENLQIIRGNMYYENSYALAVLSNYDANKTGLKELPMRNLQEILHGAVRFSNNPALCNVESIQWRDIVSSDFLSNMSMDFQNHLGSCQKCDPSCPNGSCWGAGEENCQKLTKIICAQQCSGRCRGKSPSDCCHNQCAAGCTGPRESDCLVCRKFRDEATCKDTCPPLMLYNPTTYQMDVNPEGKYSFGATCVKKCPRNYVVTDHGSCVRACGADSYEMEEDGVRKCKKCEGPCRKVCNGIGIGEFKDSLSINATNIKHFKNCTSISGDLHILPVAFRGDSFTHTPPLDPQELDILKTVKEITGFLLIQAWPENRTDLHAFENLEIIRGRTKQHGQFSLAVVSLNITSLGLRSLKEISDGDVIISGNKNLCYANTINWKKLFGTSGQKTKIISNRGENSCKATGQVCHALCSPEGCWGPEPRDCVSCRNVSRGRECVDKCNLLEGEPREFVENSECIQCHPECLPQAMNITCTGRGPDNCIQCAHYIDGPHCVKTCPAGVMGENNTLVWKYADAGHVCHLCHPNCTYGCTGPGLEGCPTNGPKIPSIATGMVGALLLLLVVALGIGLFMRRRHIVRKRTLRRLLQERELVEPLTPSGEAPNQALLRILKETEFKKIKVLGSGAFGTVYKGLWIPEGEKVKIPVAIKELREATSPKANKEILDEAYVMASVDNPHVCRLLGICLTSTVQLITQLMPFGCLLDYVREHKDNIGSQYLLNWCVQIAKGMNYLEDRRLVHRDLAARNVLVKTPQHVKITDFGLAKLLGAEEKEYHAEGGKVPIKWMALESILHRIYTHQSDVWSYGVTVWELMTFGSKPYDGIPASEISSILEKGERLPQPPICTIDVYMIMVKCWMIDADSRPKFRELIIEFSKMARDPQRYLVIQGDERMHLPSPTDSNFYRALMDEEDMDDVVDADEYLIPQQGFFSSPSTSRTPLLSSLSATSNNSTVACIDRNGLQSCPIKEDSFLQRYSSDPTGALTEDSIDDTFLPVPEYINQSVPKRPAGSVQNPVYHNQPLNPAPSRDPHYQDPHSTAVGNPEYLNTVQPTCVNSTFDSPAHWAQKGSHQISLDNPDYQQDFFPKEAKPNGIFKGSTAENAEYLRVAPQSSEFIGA
Abl(m), sequence (P00520 whole entry): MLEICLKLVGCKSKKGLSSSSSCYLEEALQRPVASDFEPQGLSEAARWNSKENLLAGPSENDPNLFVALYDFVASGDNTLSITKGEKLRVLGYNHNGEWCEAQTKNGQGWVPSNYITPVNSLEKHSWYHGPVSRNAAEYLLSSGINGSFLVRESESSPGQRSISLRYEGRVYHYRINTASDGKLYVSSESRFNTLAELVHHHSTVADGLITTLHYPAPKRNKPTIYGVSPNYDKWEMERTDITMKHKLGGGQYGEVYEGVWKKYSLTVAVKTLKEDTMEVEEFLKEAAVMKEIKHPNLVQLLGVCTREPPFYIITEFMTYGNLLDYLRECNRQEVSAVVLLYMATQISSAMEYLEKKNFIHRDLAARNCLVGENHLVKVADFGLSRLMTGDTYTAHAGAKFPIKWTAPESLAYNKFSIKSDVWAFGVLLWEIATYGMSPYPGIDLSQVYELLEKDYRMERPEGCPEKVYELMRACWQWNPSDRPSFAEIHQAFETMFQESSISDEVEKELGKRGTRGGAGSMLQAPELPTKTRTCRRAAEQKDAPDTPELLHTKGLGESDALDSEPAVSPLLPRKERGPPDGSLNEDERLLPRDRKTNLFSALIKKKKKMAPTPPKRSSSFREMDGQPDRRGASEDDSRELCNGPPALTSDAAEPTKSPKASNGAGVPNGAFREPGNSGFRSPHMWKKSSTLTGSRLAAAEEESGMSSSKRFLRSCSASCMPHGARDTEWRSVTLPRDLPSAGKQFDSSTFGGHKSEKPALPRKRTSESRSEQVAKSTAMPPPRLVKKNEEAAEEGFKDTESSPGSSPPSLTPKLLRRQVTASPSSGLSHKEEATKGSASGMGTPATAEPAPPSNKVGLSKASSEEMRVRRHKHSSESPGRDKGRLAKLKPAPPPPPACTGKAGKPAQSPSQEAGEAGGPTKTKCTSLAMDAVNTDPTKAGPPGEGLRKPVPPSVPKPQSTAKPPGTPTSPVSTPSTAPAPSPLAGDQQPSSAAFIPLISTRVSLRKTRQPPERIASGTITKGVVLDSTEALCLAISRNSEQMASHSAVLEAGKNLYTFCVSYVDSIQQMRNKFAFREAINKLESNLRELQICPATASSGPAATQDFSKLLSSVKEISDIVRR
MAPKAP-K3(h), sequence (Q16644 whole entry): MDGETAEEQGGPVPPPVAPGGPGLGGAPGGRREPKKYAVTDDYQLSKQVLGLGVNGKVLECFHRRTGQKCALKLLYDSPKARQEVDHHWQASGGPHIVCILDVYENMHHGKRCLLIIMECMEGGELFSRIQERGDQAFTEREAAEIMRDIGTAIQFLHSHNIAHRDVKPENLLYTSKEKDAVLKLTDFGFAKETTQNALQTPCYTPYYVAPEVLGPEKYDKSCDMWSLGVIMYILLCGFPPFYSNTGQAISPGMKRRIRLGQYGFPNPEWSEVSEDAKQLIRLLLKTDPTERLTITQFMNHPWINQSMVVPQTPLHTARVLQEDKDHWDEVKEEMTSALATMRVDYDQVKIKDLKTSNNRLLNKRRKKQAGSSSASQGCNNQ
Axl(h), sequence (P30530 26-894): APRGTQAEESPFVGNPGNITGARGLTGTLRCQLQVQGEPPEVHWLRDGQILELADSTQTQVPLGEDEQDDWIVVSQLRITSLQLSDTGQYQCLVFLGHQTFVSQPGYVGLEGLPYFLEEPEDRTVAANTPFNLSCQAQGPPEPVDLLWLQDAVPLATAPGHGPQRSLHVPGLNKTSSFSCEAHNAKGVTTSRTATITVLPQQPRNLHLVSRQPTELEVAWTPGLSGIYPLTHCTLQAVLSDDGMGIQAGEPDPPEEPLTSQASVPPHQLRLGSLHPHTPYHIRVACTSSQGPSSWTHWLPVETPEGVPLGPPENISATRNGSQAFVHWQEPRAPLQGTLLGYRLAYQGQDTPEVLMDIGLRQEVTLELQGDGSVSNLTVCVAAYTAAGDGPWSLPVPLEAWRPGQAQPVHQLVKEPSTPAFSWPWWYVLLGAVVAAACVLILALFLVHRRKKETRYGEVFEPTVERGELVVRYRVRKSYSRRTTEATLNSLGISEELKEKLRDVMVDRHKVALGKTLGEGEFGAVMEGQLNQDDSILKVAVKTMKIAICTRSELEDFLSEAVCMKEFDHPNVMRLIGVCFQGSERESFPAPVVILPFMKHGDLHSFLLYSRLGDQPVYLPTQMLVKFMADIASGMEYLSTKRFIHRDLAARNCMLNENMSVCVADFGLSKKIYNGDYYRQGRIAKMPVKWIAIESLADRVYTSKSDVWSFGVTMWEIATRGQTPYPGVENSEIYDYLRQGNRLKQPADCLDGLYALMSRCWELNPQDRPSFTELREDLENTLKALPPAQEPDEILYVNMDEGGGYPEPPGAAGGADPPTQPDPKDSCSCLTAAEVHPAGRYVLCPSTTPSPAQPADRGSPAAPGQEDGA
PKCζ(h), sequence (Q05513 whole entry): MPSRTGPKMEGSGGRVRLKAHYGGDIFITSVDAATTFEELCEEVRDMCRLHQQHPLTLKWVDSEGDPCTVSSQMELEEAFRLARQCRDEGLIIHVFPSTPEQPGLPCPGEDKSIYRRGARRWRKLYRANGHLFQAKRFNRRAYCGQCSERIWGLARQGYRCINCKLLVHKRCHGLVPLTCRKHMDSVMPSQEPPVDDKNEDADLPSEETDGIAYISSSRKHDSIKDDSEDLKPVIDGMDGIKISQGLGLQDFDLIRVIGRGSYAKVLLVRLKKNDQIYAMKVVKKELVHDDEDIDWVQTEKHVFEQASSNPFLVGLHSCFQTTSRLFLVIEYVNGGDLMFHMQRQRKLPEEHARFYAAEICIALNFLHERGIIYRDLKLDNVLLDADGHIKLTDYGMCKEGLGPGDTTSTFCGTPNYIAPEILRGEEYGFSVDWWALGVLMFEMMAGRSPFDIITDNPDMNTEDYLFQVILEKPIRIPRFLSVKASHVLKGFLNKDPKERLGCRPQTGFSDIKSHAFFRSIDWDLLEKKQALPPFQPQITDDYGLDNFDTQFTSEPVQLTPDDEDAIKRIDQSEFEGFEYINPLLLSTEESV
PKCβI(h), sequence (P05771 whole entry): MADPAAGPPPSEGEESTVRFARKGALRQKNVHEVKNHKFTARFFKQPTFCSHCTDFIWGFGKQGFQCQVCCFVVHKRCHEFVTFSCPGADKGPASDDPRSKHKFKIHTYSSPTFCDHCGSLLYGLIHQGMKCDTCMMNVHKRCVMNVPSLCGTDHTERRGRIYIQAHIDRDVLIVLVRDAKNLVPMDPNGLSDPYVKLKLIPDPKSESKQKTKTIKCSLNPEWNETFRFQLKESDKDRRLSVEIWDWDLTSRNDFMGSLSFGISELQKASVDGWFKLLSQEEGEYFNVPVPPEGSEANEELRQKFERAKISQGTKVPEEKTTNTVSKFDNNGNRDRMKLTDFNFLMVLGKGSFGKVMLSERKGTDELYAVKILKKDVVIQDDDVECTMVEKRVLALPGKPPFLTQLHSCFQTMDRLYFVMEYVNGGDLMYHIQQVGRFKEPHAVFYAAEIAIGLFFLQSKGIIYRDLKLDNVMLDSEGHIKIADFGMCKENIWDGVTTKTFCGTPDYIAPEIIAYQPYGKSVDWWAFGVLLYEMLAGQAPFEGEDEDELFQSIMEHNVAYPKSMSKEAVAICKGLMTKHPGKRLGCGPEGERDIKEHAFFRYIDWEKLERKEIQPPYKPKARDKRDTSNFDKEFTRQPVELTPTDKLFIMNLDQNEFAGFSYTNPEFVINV

For CN1CCCC1CCNC(=O)c1cn2c3c(c(N4CCC(c5cnccn5)C4)c(F)cc3c1=O)Oc1cc3ccccc3cc1-2 (stereo not drawn) [Compound A-1], the remaining activity at 2.5 µM (Abl(m)) was 9%, the remaining activity at 2.5 µM (Axl(h)) was 75% and the remaining activity at 2.5 µM (EGFR(h)) was 122%. It also gave a remaining activity at 2.5 µM (MAPKAP-K3(h)) of 94%, a remaining activity at 2.5 µM (PKCβI(h)) of 94% and a remaining activity at 2.5 µM (PKCζ(h)) of 56%.

In the case of CC(=O)N1CCN(c2ccc3c(=O)c(C(=O)NCCN4CCCC4)c4n(C)c5ccccc5n4c3n2)CC1 [Compound B-1], the remaining activity at 2.5 µM (Abl(m)) is reported as 104%, the remaining activity at 2.5 µM (Axl(h)) is reported as 102% and the remaining activity at 2.5 µM (EGFR(h)) is reported as 117%. The remaining activity at 2.5 µM (MAPKAP-K3(h)) was 109%, the remaining activity at 2.5 µM (PKCβI(h)) was 97% and the remaining activity at 2.5 µM (PKCζ(h)) was 113%.
